In the supplement of paper PMC11208160:

Assay: recombinant UMI read abundance after kanamycin selection (control-corrected) (log10(CPM+1)); higher = more efficient recombination; extreme values may be limits of the assay; sequences stand for … in AGTGCAGAGAAAATCGGCCAGTTTTCTCTGCCTGCAGTCCGCATGCCGTGGGACCCCTTGGGTTCTAACCTGTTGCCTAGATTTATGCAGCGGACTGCCTTTCTCCCAAAGTGATAAACCGG…AGGTTGGTTTCACT; site = the 11-nt donor
Procedure, shortened: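 Pooled Escherichia coli screen of donor and donor-binding-loop pairs for the IS621 bridge recombinase. Each pair sits with a 12-nt UMI on a plasmid carrying a promoterless kanamycin gene. The library was co-electroporated with a target plasmid encoding a fixed target and T7-inducible recombinase, then plated with IPTG (0.07 mM) plus kanamycin, or unselected, each in two replicates. Recombinant UMIs were PCR-amplified across the donor–target junction and sequenced. Counts became CPM, averaged over replicates, scaled by control-derived factors and reported as log10(CPM+1).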
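Also: IS621 bridge recombinase in Escherichia coli cells against a fixed T5 target plasmid.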

Sequence	recombinant UMI read abundance (log10)
CTCCGTACATGGACCGGTTTTCCCGGTAATCCGTATTTGAG (site CTCCTTACTCT)	0.0158
CTCCTCCCATGGACCGGTTTTCCCGGTAATCCGTATTTGAC (site CTCCTCCCTGT)	1.49
CTCCTCGCATGGACCGGTTTTCCCGGTAATCCGTATTTGAA (site CTCCTCGCTTT)	1.06
CTCCTCTCATGGACCGGTTTTCCCGGTAATCCGTATTTGTA (site CTACTCTCTTA)	0.176
CTCCTCTCATGGACCGGTTTTCCCGGTAATCCGTATTTGTA (site CTCCTCTCTTA)	2.45
CTCCTCTCATGGACCGGTTTTCCCGGTAATCCGTATTTGTA (site CTGCTCTCTTA)	0.0102
CTCCTCTCATGGACCGGTTTTCCCGGTAATCCGTATTTGTA (site CTTCTCTCTTA)	0
CTCCTTGCATGGACCGGTTTTCCCGGTAATCCGTATTTGTA (site CTCCTTGCTTA)	0
CTCGAATCATGGACCGGTTTTCCCGGTAATCCGTATTTGAC (site CTAGTATCTGT)	0.00618
CTCGAATCATGGACCGGTTTTCCCGGTAATCCGTATTTGAC (site CTCGAATCTGT)	1.76
CTCGACACATGGACCGGTTTTCCCGGTAATCCGTATTTGCT (site CTCAACACTAG)	1.72
CTCGACACATGGACCGGTTTTCCCGGTAATCCGTATTTGCT (site CTCCACACTAG)	1.93
CTCGACACATGGACCGGTTTTCCCGGTAATCCGTATTTGCT (site CTCGACACTAG)	2.25
CTCGACACATGGACCGGTTTTCCCGGTAATCCGTATTTGCT (site CTCTACACTAG)	2.03
CTCGCACCATGGACCGGTTTTCCCGGTAATCCGTATTTGTC (site CTCGCACCTGA)	0
CTCGTCTCATGGACCGGTTTTCCCGGTAATCCGTATTTGAC (site CTAGTATCTGT)	0

Sequence	recombinant UMI read abundance (log10)
CTCGTCTCATGGACCGGTTTTCCCGGTAATCCGTATTTGAC (site CTCGTCTCTGT)	1.54
CTCTACACATGGACCGGTTTTCCCGGTAATCCGTATTTGCA (site CTCTACACTAG)	1.37
CTCTACACATGGACCGGTTTTCCCGGTAATCCGTATTTGCA (site CTCTACACTCG)	0.499
CTCTACACATGGACCGGTTTTCCCGGTAATCCGTATTTGCA (site CTCTACACTGG)	1.53
CTCTACACATGGACCGGTTTTCCCGGTAATCCGTATTTGCA (site CTCTACACTTG)	2.37
CTCTACACATGGACCGGTTTTCCCGGTAATCCGTATTTGGT (site CTCTACACTAA)	0.0359
CTCTACACATGGACCGGTTTTCCCGGTAATCCGTATTTGGT (site CTCTACACTAC)	0.0415
CTCTACACATGGACCGGTTTTCCCGGTAATCCGTATTTGGT (site CTCTACACTAG)	0.21
CTCTACACATGGACCGGTTTTCCCGGTAATCCGTATTTGGT (site CTCTACACTAT)	0.203
CTCTAGTCATGGACCGGTTTTCCCGGTAATCCGTATTTGTG (site CTCTAGTCTCA)	1.99
CTCTTCACATGGACCGGTTTTCCCGGTAATCCGTATTTGCT (site CTCTACACTAG)	1.29
CTCTTCACATGGACCGGTTTTCCCGGTAATCCGTATTTGCT (site CTCTCCACTAG)	1.14
CTCTTCACATGGACCGGTTTTCCCGGTAATCCGTATTTGCT (site CTCTGCACTAG)	0
CTCTTCACATGGACCGGTTTTCCCGGTAATCCGTATTTGCT (site CTCTTCACTAG)	2.46
CTCTTCTCATGGACCGGTTTTCCCGGTAATCCGTATTTGGG (site CACTTCTCTCC)	0
CTCTTCTCATGGACCGGTTTTCCCGGTAATCCGTATTTGGG (site CCCTTCTCTCC)	0.0128
